Test results taken from patent US4508663A, “Process for preparing thiosulfenamide derivatives of N-phosphonomethylglycinonitriles” (Monsanto Company, priority 1983, dated 1985).

Columns and labels:
Experiment in all cases: post-emergence herbicidal activity, greenhouse
Format in all cases: in vivo
[1] = system: Cocklebur
Method in brief: (§1)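 Plants grown from seed or perennial propagules in greenhouse soil pans were sprayed at two to three weeks with compound solution or suspension containing about 0.4% emulsifier, at the stated application rates. Injury relative to untreated controls was scored at approximately two and four weeks after treatment on a post-emergence activity index.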

[2] = system: Johnsongrass; conditions: Table I
Method in brief: as §1

[3] = system: Quackgrass; conditions: Table I
Method in brief: as §1

[4] = system: Smartweed
Method in brief: as §1

[5] = system: Barnyardgrass
Method in brief: as §1

[6] = system: Rice; conditions: Table II, 4 WAT
Method in brief: as §1

[7] = system: Canada Thistle; conditions: Table I
Method in brief: as §1

[8] = system: Hemp Sesbania; conditions: Table II, 4 WAT
Method in brief: as §1

[9] = system: Soybean; conditions: Table II, 4 WAT
Method in brief: as §1

[10] = system: Yellow Nutsedge; conditions: Table I
Method in brief: as §1

[11] = system: Sorghum; conditions: Table II, 4 WAT
Method in brief: as §1

[12] = system: Sugar Beet; conditions: Table II, 4 WAT
Method in brief: as §1

[13] = system: Velvetleaf
Method in brief: as §1

[14] = system: Wild Buckwheat; conditions: Table II, 4 WAT
Method in brief: as §1

[15] = system: Panicum Spp; conditions: Table II, 4 WAT
Method in brief: as §1

[16] = system: Morningglory
Method in brief: as §1

[17] = system: Wheat; conditions: Table II, 4 WAT
Method in brief: as §1

[18] = system: Downy Brome
Method in brief: as §1

[19] = system: Crabgrass; conditions: Table II, 4 WAT
Method in brief: as §1

[20] = system: Lambsquarters
Method in brief: as §1

Measured: post-emergence herbicidal activity index

N#CCN(CP(=O)(Oc1ccccc1)Oc1ccccc1)SSc1cccc(C(F)(F)F)c1 [IV, Phosphonic acid, [[(cyanomethyl)[[3-(trifluoromethyl)phenyl]dithio]amino]methyl]-, diphenyl ester]
4 (100% control): [4]; Table I, 4 WAT, 11.2 kg/h | [20]; Table I, 4 WAT, 11.2 kg/h | [20]; Table II, 4 WAT, 5.6 kg/h
1 (25-49% control): [1]; Table I, 2 WAT, 5.6 kg/h | [1]; Table II, 4 WAT, 1.12 kg/h | [2]; 2 WAT, 11.2 kg/h | [2]; 4 WAT, 11.2 kg/h | [3]; 2 WAT, 5.6 kg/h | [4]; Table I, 2 WAT, 11.2 kg/h | [4]; Table II, 4 WAT, 1.12 kg/h | [7]; 2 WAT, 5.6 kg/h | [7]; 2 WAT, 11.2 kg/h | [7]; 4 WAT, 11.2 kg/h | [8]; 5.6 kg/h | [9]; 1.12 kg/h | [9]; 5.6 kg/h | [10]; 2 WAT, 5.6 kg/h | [10]; 2 WAT, 11.2 kg/h | [13]; Table I, 4 WAT, 5.6 kg/h | [13]; Table I, 4 WAT, 11.2 kg/h | [13]; Table II, 4 WAT, 5.6 kg/h | [16]; Table I, 2 WAT, 5.6 kg/h | [16]; Table I, 2 WAT, 11.2 kg/h | [16]; Table II, 4 WAT, 1.12 kg/h | [17]; 5.6 kg/h | [18]; Table I, 2 WAT, 5.6 kg/h | [18]; Table I, 4 WAT, 5.6 kg/h | [18]; Table II, 4 WAT, 5.6 kg/h
3 (75-99% control): [1]; Table II, 4 WAT, 5.6 kg/h | [2]; 4 WAT, 5.6 kg/h | [5]; Table II, 4 WAT, 5.6 kg/h | [11]; 5.6 kg/h | [16]; Table I, 4 WAT, 5.6 kg/h | [19]; 1.12 kg/h | [19]; 5.6 kg/h | [20]; Table I, 2 WAT, 5.6 kg/h | [20]; Table I, 2 WAT, 11.2 kg/h | [20]; Table I, 4 WAT, 5.6 kg/h
0 (0-24% control): [3]; 2 WAT, 11.2 kg/h | [3]; 4 WAT, 11.2 kg/h | [4]; Table I, 2 WAT, 5.6 kg/h | [4]; Table I, 4 WAT, 5.6 kg/h | [5]; Table II, 4 WAT, 1.12 kg/h | [6]; 1.12 kg/h | [8]; 1.12 kg/h | [12]; 1.12 kg/h | [12]; 5.6 kg/h | [13]; Table I, 2 WAT, 5.6 kg/h | [13]; Table I, 2 WAT, 11.2 kg/h | [13]; Table II, 4 WAT, 1.12 kg/h | [14]; 1.12 kg/h | [15]; 1.12 kg/h | [17]; 1.12 kg/h | [18]; Table I, 2 WAT, 11.2 kg/h | [18]; Table II, 4 WAT, 1.12 kg/h
2 (50-74% control): [1]; Table I, 2 WAT, 11.2 kg/h | [1]; Table I, 4 WAT, 5.6 kg/h | [1]; Table I, 4 WAT, 11.2 kg/h | [2]; 2 WAT, 5.6 kg/h | [3]; 4 WAT, 5.6 kg/h | [4]; Table II, 4 WAT, 5.6 kg/h | [5]; Table I, 2 WAT, 5.6 kg/h | [5]; Table I, 2 WAT, 11.2 kg/h | [5]; Table I, 4 WAT, 5.6 kg/h | [5]; Table I, 4 WAT, 11.2 kg/h | [6]; 5.6 kg/h | [7]; 4 WAT, 5.6 kg/h | [10]; 4 WAT, 5.6 kg/h | [10]; 4 WAT, 11.2 kg/h | [11]; 1.12 kg/h | [14]; 5.6 kg/h | [15]; 5.6 kg/h | [16]; Table I, 4 WAT, 11.2 kg/h | [16]; Table II, 4 WAT, 5.6 kg/h | [18]; Table I, 4 WAT, 11.2 kg/h | [20]; Table II, 4 WAT, 1.12 kg/h
